Measured values taken from publication PMC12373846, “Hemoglobin as a pseudoperoxidase and drug target for oxidative stress-related diseases” (Signal Transduction and Targeted Therapy, 2025).
Values joined by “and” are separate entries in the source; they are usually repeats but may differ in a detail not shown here. Equal entries are not always repeated. Where two headings read alike, the source gives them in different places.

Legend:
Test in all cases: SafetyScreen87 panel
[1] = biological target: T1, D1 (h) (antagonist radioligand) (Homo sapiens, UniProt P21728); conditions: 1.0E-06 M, read-out: % Inhibition of Control Specific Binding (1st, 2nd, Mean)
T1 construct: purchased DiscoverX KINOMEscan scanEDGE; Eurofins Cerep SafetyScreen87
T1 sequence (P21728 whole entry): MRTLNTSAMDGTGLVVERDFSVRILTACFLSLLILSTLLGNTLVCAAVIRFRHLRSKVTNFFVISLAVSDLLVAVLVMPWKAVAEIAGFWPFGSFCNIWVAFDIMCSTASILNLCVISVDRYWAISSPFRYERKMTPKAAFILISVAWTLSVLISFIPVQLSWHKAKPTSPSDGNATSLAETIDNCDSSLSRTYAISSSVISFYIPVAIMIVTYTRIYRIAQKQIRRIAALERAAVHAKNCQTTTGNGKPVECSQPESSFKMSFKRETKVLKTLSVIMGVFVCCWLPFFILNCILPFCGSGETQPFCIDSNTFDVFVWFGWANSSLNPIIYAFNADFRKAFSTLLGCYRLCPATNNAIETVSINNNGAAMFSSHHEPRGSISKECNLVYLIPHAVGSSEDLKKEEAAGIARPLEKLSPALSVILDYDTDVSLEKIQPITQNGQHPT
Description: (§1) The possibility of KDS12025 on kinase off-target, the KINOMEscan panel of scanEDGE assay was conducted in DiscoverX (CA, USA) using a site-directed competition binding with the test compounds. The assay results are given in Supplementary Table 4 and experimental information is available on the DiscoverX web page (www.discoverx.com). Moreover, the Delta SafetyScreen87 panel assay was conducted in Eurofins Discovery (Cerep, France). The assay results are given in Supplementary Table 5 and experimental information is available on the DiscoverX web page (https://www.eurofinsdiscoveryservices.com).

[2] = biological target: T2, CB1 (h) (agonist radioligand) (Homo sapiens, UniProt P21554); conditions: 1.0E-06 M, read-out: % Inhibition of Control Specific Binding (1st, 2nd, Mean)
T2 construct: purchased DiscoverX KINOMEscan scanEDGE; Eurofins Cerep SafetyScreen87
T2 sequence (P21554 whole entry): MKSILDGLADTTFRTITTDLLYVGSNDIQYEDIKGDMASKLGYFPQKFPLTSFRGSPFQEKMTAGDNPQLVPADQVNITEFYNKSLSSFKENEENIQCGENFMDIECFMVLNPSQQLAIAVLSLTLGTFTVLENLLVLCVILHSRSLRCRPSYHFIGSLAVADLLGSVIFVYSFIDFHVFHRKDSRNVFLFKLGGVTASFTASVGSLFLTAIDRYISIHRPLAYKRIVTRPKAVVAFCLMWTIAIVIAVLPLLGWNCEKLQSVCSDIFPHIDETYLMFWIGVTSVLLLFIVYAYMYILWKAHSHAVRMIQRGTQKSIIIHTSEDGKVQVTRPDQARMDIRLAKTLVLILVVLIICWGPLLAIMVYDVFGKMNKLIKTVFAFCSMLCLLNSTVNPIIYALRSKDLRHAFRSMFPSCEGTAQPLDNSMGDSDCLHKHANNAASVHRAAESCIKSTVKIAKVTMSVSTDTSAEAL
Description: as §1

[3] = biological target: T3, alpha 1A (h) (antagonist radioligand) (Homo sapiens, UniProt P35348); conditions: 1.0E-06 M, read-out: % Inhibition of Control Specific Binding (1st, 2nd, Mean)
T3 construct: purchased DiscoverX KINOMEscan scanEDGE; Eurofins Cerep SafetyScreen87
T3 sequence (P35348 whole entry): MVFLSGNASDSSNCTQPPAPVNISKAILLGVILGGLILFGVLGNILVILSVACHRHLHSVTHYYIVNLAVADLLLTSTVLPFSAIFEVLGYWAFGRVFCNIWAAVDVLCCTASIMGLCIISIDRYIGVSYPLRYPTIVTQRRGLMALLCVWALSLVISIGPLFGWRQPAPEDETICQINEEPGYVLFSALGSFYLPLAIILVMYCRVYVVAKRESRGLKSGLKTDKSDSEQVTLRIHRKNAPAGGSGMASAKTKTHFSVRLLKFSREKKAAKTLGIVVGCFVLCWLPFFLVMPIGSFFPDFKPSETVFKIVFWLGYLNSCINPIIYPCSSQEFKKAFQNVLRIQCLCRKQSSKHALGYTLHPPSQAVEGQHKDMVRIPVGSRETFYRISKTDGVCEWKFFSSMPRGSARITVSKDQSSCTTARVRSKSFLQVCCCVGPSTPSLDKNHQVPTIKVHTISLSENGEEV
Description: as §1

[4] = tested on: Cl- channel (GABA-gated) (TBOB site) (antagonist radioligand); conditions: 1.0E-06 M, read-out: % Inhibition of Control Specific Binding (1st, 2nd, Mean)
Description: as §1

[5] = tested on: kainate (agonist radioligand); conditions: 1.0E-06 M, read-out: % Inhibition of Control Specific Binding (1st, 2nd, Mean)
Description: as §1

[6] = tested on: glycine (strychnine-insensitive) (antagonist radioligand); conditions: 1.0E-06 M; read-out: % Inhibition of Control Specific Binding (1st, 2nd, Mean)
Description: as §1

[7] = biological target: T4, CysLT1 (LTD4) (h) (agonist radioligand) (Homo sapiens, UniProt Q9Y271); conditions: read-out: % Inhibition of Control Specific Binding (1st, 2nd, Mean); 1.0E-06 M
T4 construct: purchased DiscoverX KINOMEscan scanEDGE; Eurofins Cerep SafetyScreen87
Description: as §1

[8] = tested on: Na+ channel (site 2) (antagonist radioligand); conditions: 1.0E-06 M, read-out: % Inhibition of Control Specific Binding (1st, 2nd, Mean)
Description: as §1

[9] = biological target: T5, B2 (h) (agonist radioligand) (Homo sapiens, UniProt P30411)
T5 construct: purchased DiscoverX KINOMEscan scanEDGE; Eurofins Cerep SafetyScreen87
T5 sequence (P30411 whole entry): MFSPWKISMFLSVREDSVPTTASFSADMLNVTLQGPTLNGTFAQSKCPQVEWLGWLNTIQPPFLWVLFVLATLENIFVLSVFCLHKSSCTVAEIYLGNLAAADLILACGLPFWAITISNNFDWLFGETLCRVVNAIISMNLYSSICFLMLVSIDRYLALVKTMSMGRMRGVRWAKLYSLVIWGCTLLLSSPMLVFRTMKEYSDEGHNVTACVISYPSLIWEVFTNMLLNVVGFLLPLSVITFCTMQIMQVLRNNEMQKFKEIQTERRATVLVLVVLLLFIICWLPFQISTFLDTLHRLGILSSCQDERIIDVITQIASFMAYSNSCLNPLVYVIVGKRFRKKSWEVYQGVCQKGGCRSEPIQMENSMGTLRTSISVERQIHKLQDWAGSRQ
Description: as §1

[10] = biological target: T6, Ca2+ channel (N) (antagonist radioligand) (Rattus norvegicus, UniProt Q02294)
T6 construct: Eurofins Discovery (Cerep, France) SafetyScreen87 panel
Description: as §1

[11] = tested on: Ca2+ channel (L, verapamil site) (phenylalkylamine) (antagonist radioligand); conditions: 1.0E-06 M, read-out: % Inhibition of Control Specific Binding (1st, 2nd, Mean)
Description: as §1

hERG potassium channel = biological target: T7, hERG potassium channel (Homo sapiens, UniProt Q12809); conditions: human, probe [3H] Dofetilide, 1.0E-06 M; read-out: % Inhibition of Control Specific Binding (1st, 2nd, Mean)
T7 construct: Eurofins Discovery (Cerep, France) SafetyScreen87 panel
Description: as §1

[12] = biological target: T8, AT1 (h) (antagonist radioligand) (Homo sapiens, UniProt P30556); conditions: 1.0E-06 M, read-out: % Inhibition of Control Specific Binding (1st, 2nd, Mean)
T8 construct: purchased DiscoverX KINOMEscan scanEDGE; Eurofins Cerep SafetyScreen87
T8 sequence (P30556 whole entry): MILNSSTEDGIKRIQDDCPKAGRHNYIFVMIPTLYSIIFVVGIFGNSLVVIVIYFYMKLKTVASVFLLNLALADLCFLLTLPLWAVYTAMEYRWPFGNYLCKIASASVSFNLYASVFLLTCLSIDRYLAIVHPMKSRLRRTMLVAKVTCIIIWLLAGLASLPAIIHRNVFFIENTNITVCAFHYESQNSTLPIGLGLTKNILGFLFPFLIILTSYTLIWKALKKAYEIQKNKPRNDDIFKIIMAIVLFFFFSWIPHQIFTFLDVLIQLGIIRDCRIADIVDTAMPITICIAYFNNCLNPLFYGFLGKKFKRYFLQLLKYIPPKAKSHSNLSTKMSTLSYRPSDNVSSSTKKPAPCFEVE
Description: as §1

[13] = biological target: T9, PR (h) (agonist radioligand) (Homo sapiens, UniProt P06401); conditions: read-out: % Inhibition of Control Specific Binding (1st, 2nd, Mean); 1.0E-06 M
T9 construct: purchased DiscoverX KINOMEscan scanEDGE; Eurofins Cerep SafetyScreen87
Description: as §1

[14] = biological target: T10, CCK2 (CCKB) (h) (agonist radioligand) (Homo sapiens, UniProt P32239)
T10 construct: purchased DiscoverX KINOMEscan scanEDGE; Eurofins Cerep SafetyScreen87
T10 sequence (P32239 whole entry): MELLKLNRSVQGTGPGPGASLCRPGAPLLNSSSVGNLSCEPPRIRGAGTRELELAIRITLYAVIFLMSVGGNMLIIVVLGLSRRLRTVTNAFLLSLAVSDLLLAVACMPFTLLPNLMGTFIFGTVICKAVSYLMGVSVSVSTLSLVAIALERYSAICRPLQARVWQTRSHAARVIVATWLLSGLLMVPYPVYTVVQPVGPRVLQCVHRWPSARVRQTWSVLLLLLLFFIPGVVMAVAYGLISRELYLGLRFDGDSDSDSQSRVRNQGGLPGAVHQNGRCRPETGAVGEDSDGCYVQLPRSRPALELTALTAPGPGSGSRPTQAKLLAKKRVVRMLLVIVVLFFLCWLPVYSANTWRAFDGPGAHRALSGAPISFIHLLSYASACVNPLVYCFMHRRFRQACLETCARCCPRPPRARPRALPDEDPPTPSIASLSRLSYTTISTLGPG
Description: as §1

[15] = biological target: T11, norepinephrine transporter (h) (antagonist radioligand) (Homo sapiens, UniProt P23975); conditions: 1.0E-06 M, read-out: % Inhibition of Control Specific Binding (1st, 2nd, Mean)
T11 construct: Eurofins Discovery (Cerep, France) SafetyScreen87 panel
T11 sequence (P23975 whole entry): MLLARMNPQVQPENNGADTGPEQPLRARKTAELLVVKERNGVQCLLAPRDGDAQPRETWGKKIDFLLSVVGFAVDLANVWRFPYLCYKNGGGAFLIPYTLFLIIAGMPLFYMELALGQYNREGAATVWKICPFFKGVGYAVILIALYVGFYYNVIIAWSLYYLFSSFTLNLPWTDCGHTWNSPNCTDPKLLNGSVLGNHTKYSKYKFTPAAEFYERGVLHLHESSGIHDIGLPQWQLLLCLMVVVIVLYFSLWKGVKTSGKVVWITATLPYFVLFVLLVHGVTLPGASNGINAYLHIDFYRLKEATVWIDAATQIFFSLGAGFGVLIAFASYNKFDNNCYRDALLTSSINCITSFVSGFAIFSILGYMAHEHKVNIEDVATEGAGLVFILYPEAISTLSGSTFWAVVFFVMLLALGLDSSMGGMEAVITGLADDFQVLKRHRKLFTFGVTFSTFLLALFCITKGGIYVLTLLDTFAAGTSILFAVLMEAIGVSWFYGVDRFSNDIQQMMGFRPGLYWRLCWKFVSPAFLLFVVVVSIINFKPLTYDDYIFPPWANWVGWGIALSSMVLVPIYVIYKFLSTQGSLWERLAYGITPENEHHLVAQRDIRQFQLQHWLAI
Description: as §1

[16] = biological target: T12, MC4 (h) (agonist radioligand) (Homo sapiens, UniProt P32245); conditions: 1.0E-06 M; read-out: % Inhibition of Control Specific Binding (1st, 2nd, Mean)
T12 construct: purchased DiscoverX KINOMEscan scanEDGE; Eurofins Cerep SafetyScreen87
Description: as §1

[17] = biological target: T13, GABAB(1b) (h) (antagonist radioligand) (Homo sapiens, UniProt Q9UBS5); conditions: 1.0E-06 M, read-out: % Inhibition of Control Specific Binding (1st, 2nd, Mean)
T13 construct: purchased DiscoverX KINOMEscan scanEDGE; Eurofins Cerep SafetyScreen87
T13 sequence (Q9UBS5 1-844 isoform Q9UBS5-2): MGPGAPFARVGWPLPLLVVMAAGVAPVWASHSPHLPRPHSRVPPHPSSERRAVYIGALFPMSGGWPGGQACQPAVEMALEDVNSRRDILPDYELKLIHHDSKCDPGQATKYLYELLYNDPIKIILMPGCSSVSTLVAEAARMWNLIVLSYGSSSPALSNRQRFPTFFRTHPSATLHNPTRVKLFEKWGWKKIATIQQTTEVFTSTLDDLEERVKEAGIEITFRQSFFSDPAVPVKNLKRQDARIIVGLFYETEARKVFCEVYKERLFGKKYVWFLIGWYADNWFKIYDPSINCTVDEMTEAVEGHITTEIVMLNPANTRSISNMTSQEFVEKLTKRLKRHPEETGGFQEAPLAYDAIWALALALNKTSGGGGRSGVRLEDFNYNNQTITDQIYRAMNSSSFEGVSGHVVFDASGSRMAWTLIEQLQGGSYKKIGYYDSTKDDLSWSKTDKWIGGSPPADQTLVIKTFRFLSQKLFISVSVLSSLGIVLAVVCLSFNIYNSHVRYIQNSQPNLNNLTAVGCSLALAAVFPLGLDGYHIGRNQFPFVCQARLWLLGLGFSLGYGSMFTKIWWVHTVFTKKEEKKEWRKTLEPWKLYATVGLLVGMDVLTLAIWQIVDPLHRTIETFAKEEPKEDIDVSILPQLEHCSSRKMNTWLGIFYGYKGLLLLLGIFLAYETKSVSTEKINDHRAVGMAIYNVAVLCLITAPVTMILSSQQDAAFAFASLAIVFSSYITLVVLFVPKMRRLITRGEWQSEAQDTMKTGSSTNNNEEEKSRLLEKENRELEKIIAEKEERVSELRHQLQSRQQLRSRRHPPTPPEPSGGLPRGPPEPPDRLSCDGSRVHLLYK
Description: as §1

[18] = biological target: T14, PPARgamma (h) (agonist radioligand) (Homo sapiens, UniProt P37231); conditions: read-out: % Inhibition of Control Specific Binding (1st, 2nd, Mean); 1.0E-06 M
T14 construct: purchased DiscoverX KINOMEscan scanEDGE; Eurofins Cerep SafetyScreen87
Description: as §1

[19] = biological target: T15, alpha 2B (h) (antagonist radioligand) (Homo sapiens, UniProt P18089); conditions: 1.0E-06 M, read-out: % Inhibition of Control Specific Binding (1st, 2nd, Mean)
T15 construct: purchased DiscoverX KINOMEscan scanEDGE; Eurofins Cerep SafetyScreen87
T15 sequence (P18089 whole entry): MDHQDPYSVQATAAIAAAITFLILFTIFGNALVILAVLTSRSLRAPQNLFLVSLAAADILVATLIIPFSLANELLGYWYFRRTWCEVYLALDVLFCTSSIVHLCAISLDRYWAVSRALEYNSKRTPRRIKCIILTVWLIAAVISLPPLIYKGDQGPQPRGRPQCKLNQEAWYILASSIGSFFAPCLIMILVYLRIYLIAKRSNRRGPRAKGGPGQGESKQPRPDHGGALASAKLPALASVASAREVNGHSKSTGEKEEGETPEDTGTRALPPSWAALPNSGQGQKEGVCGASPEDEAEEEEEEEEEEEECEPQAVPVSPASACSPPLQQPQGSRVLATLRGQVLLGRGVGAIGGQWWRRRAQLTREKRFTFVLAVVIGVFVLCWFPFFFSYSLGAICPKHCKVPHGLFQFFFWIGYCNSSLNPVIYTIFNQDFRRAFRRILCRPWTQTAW
Description: as §1

[20] = biological target: T16, M2 (h) (antagonist radioligand) (Homo sapiens, UniProt P08172); conditions: 1.0E-06 M; mean; read-out: % Inhibition of Control Specific Binding (1st, 2nd, Mean)
T16 construct: purchased DiscoverX KINOMEscan scanEDGE; Eurofins Cerep SafetyScreen87
Description: as §1

[21] = biological target: T17, 5-HT1A (h) (agonist radioligand) (Homo sapiens, UniProt P08908); conditions: 1.0E-06 M; mean; read-out: % Inhibition of Control Specific Binding (1st, 2nd, Mean)
T17 construct: purchased DiscoverX KINOMEscan scanEDGE; Eurofins Cerep SafetyScreen87
Description: as §1

[22] = tested on: PCP (antagonist radioligand); conditions: 1.0E-06 M; mean; read-out: % Inhibition of Control Specific Binding (1st, 2nd, Mean)
Description: as §1

[23] = biological target: T18, M4 (h) (antagonist radioligand) (Homo sapiens, UniProt P08173); conditions: 1.0E-06 M; mean; read-out: % Inhibition of Control Specific Binding (1st, 2nd, Mean)
T18 construct: purchased DiscoverX KINOMEscan scanEDGE; Eurofins Cerep SafetyScreen87
T18 sequence (P08173 whole entry): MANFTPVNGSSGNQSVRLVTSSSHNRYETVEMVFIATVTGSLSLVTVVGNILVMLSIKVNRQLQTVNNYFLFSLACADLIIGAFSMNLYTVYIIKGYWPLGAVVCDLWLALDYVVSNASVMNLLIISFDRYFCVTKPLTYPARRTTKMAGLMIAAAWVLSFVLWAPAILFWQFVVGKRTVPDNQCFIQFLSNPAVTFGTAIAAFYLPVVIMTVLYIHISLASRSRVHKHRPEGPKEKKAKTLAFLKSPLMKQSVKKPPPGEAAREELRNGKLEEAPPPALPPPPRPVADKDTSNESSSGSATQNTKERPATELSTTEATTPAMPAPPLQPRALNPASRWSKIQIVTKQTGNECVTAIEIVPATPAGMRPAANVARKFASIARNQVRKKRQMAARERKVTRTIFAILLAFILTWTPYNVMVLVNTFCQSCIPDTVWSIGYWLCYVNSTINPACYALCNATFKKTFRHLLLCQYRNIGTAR
Description: as §1

[24] = tested on: KV channel (antagonist radioligand); conditions: 1.0E-06 M, read-out: % Inhibition of Control Specific Binding (1st, 2nd, Mean)
Description: as §1

[25] = biological target: T19, AR(h) (agonist radioligand) (Homo sapiens, UniProt P10275, T878A); conditions: 1.0E-06 M; mean; read-out: % Inhibition of Control Specific Binding (1st, 2nd, Mean)
T19 construct: purchased DiscoverX KINOMEscan scanEDGE; Eurofins Cerep SafetyScreen87
Description: as §1

[26] = biological target: T20, MAO-A (antagonist radioligand) (Rattus norvegicus, UniProt P21396); conditions: 1.0E-06 M; mean; read-out: % Inhibition of Control Specific Binding (1st, 2nd, Mean)
T20 construct: purchased DiscoverX KINOMEscan scanEDGE; Eurofins Cerep SafetyScreen87
Description: as §1

[27] = biological target: T21, M1 (h) (antagonist radioligand) (Homo sapiens, UniProt P11229); conditions: 1.0E-06 M; mean; read-out: % Inhibition of Control Specific Binding (1st, 2nd, Mean)
T21 construct: purchased DiscoverX KINOMEscan scanEDGE; Eurofins Cerep SafetyScreen87
Description: as §1

[28] = 1.0E-06 M; read-out: % Inhibition of Control Specific Binding (1st, 2nd, Mean)
[29] = read-out: % Inhibition of Control Specific Binding (1st, 2nd, Mean); 1.0E-06 M

SMILES: CNc1ccc(NCCc2ccccc2OC)cc1.Cl [KDS12025, N^1-(2-methoxyphenethyl)-N^4-methylbenzene-1,4-diamine hydrochloride salt]
- activity ([1]; mean): 97.5%
- activity [1]: 91.1% and 104%
- activity ([2]; mean): 80%
- activity [2]: 81.7% and 78.4%
- activity ([3]; mean): 87.1%
- activity [3]: 87.6% and 86.5%
- activity ([4]; mean): 96.4%
- activity [4]: 104% and 89%
- activity ([5]; mean): 97.4%
- activity [5]: 76.8% and 118%
- activity [6]: 96.8% and 100%
- activity [7]: 87.1%
- activity ([8]; mean): 74.5%
- activity [8]: 83.6% and 65.5%
- activity [9, 28]: 99.4%
- activity [9, 29]: 104%
- activity [10, 28]: 118%
- activity [10, 29]: 104%
- activity ([11]; mean): 98%
- activity [11]: 101% and 95.5%
- activity at 1 µM (hERG potassium channel): 70.3%
- activity ([12]; mean): 87.4%
- activity [12]: 82.3% and 92.5%
- activity [13]: 104%
- activity [14, 28]: 97%
- activity [14, 29]: 107%
- activity ([15]; mean): 93.3%
- activity [15]: 89.5%
- activity [16]: 88.7%
- activity ([17]; mean): 104%
- activity [17]: 106% and 101%
- activity [18]: 94.7%
- activity ([19]; mean): 84.2%
- activity [19]: 81.9% and 86.6%
- activity [20]: 107%
- activity [21]: 62.4%
- activity [22]: 92%
- activity [23]: 102%
- activity ([24]; mean): 96.5%
- activity [24]: 85.3% and 108%
- activity [25]: 90.9%
- activity [26]: 100%
- activity [27]: 91.8%
